Data published in US20250074911A1, “MACROCYCLIC BTK INHIBITORS” (Crossfire Oncology Holding B.V., priority 2021, published 2025).
Several values for one entry are separate records, joined by “and”; a condition that tells them apart may be missing. Equal values may be shown once.

What was measured:
[1] = target: full-length wt-BTK enzyme (Homo sapiens (Human), UniProt Q06187); assay: Biochemical kinase assay wt-BTK (IMAP)
In short: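 Compound and enzyme (final 1.2 nM) were pre-incubated for 1 h at RT, after which the reaction was started with 4 μM ATP plus 50 nM fluorescein-MBP substrate peptide. After 2 h in the dark, the IMAP progressive binding reagent stopped the reaction, and phosphorylation was read by fluorescence polarization.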

[2] = target: full-length BTK C481S enzyme (Homo sapiens (Human), UniProt Q06187, C481S); assay: Biochemical kinase assay BTK C481S (IMAP)
full-length BTK C481S enzyme, sequence (Q06187 whole entry C481S): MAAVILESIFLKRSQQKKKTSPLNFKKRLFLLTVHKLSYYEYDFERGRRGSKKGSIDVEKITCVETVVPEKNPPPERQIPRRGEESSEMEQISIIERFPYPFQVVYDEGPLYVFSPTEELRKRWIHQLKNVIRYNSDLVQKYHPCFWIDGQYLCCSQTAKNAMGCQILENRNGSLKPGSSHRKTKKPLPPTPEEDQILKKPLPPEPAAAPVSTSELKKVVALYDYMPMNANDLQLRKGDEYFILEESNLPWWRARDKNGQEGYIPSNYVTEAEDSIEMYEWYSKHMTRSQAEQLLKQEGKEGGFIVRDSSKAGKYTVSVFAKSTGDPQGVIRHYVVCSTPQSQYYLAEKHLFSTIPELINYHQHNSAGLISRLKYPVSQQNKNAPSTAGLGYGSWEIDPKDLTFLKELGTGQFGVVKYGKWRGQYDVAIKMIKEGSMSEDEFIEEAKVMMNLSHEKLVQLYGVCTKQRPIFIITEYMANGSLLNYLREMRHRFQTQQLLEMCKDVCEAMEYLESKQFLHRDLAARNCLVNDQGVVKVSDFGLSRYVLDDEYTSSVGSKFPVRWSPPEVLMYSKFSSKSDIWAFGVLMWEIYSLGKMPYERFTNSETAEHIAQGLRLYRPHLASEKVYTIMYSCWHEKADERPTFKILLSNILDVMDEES
In short: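 IC50 values come from IMAP fluorescence polarization after quenching with progressive binding solution. The reaction ran 2 h at room temperature in the dark with 1.2 nM full-length C481S enzyme, 7 μM ATP and 50 nM fluorescein-labelled MBP-derived peptide, following a 1 h dark pre-incubation of compound with enzyme.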

[3] = test system: wt-REC-1 mantle cell lymphoma cells; assay: Cell proliferation assay wt-REC-1 (ATPlite, 72 hours); format: cell-based; conditions: 72 h; read-out: IC50 wt-REC-1
In short: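 Luminescent viability read over 72 h, start-of-incubation signal recorded separately to separate growth from cell death. Percentage growth referenced to compound-free 0.3% DMSO wells; IC50 from 4-parameter logistic fit.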

REC-1 T474I cell lines = assay: Cell proliferation assay REC-1 BTK T474I knock-in cells (ATPlite, 72 hours); format: cell-based; conditions: Homo sapiens, Rec1; 72 hours; read-out: IC50 REC-1 T474I
In short: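 REC-1 cells carrying CRISPR knock-in mutant BTK, single-cell cloned and sequence-confirmed, were exposed to compound for 72 h and read by ATPlite luminescence. Percentage growth was calculated against the signal at the start of incubation and against untreated 0.3% DMSO wells as maximum growth.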

wt-BTK = wt-BTK (Homo sapiens (Human), UniProt Q06187); assay: Binding kinetics measurements (Surface Plasmon Resonance) on wt-BTK; conditions: for Kd: binding affinity by Surface Plasmon Resonance (SPR); for Tau (h) wt-BTK (Act): target residence time, SPR
wt-BTK, sequence (Q06187 whole entry): as the sequence (Q06187 whole entry C481S) above, with S481C counted along it
In short: (§1)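 Constants come from single-cycle kinetics: five rising compound injections (3.16-316 nM) at 30 μl/min and 22° C over streptavidin-captured BTK (wild type or mutant), running buffer containing 1% DMSO. Double referencing applied; induced-fit binders fitted to a two-state model; duplicates geometrically averaged; residence time derived.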

BTK C481S = BTK C481S (Homo sapiens (Human), UniProt Q06187, C481S); assay: Binding kinetics measurements (Surface Plasmon Resonance) on BTK C481S; conditions: for Kd: binding affinity by Surface Plasmon Resonance (SPR); for Tau (h) BTK C418S (Act): target residence time for BTK C481S, SPR
BTK C481S, sequence (Q06187 whole entry C481S): as the sequence (Q06187 whole entry C481S) above
In short: as §1

BTK T316A = BTK T316A (Homo sapiens (Human), UniProt Q06187, T316A); assay: Binding kinetics measurements (Surface Plasmon Resonance) on BTK T316A; conditions: for Tau (h) BTK T316A (Act): target residence time, SPR; for Kd: binding affinity by Surface Plasmon Resonance (SPR)
BTK T316A, sequence (Q06187 whole entry T316A): as the sequence (Q06187 whole entry C481S) above, with T316A, S481C counted along it
In short: as §1

BTK T474I = BTK T474I (Homo sapiens (Human), UniProt Q06187, T474I); assay: Binding kinetics measurements (Surface Plasmon Resonance) on BTK T474I; conditions: for Kd: binding affinity by Surface Plasmon Resonance (SPR); for Tau (h) BTK T474I (Act): target residence time, SPR
BTK T474I, sequence (Q06187 whole entry T474I): as the sequence (Q06187 whole entry C481S) above, with T474I, S481C counted along it
In short: as §1

BTK T474S = BTK T474S (Homo sapiens (Human), UniProt Q06187, T474S); assay: Binding kinetics measurements (Surface Plasmon Resonance) on BTK T474S; conditions: for residence time: SPR binding kinetics, BTK T474S, read-out: Tau (h) BTK T474S (Act), target residence time (converted); for Kd: binding affinity by Surface Plasmon Resonance (SPR)
BTK T474S, sequence (Q06187 whole entry T474S): as the sequence (Q06187 whole entry C481S) above, with T474S, S481C counted along it
In short: as §1

[4] = test system: wt-TMD8 diffuse large B-cell lymphoma cells; assay: Cell proliferation assay wt-TMD8 (ATPlite, 120 hours); format: cell-based; conditions: B-cell; wt-TMD8 cells, 120 hours, ATPlite; read-out: IC50 wt-TMD8
In short: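 Readout is percentage growth from ATPlite 1Step luminescence after 5 days (120 h) compound treatment of wt-TMD8 lymphoma cells (1600/well, RPMI-1640 + 10% FBS). Time-zero signal separates growth inhibition from cell kill; 0.3% DMSO wells without compound define maximal growth.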

full-length wt-BTK enzyme, sequence (Q06187 whole entry): as the sequence (Q06187 whole entry C481S) above, with S481C counted along it

SMILES | IC50 [1] [nM] | IC50 [2] [nM] | IC50 [3] [nM] | Kd (wt-BTK) [nM] | Tau (h) wt-BTK (Act) (wt-BTK) [h] | Kd (BTK C481S) [nM] | Tau (h) BTK C418S (Act) (BTK C481S) [h] | Tau (h) BTK T316A (Act) (BTK T316A) [h] | Kd (BTK T474I) | residence time (BTK T474S) [h] | Kd (BTK T474S) [nM] | IC50 [4] [nM] | Kd (BTK T316A) [nM] | Tau (h) BTK T474I (Act) (BTK T474I) [h] | IC50 (REC-1 T474I cell lines) [nM]
COc1ccc(F)cc1C(=O)NCc1ccc(-c2nn3c4c(cnc(N)c24)/C=C/CO[C@H](C)C(=O)N[C@@H]2CCC[C@@H]3C2)cc1 [Example 53] | < 5 | < 5 | < 100 | < 5 | 0.89 | < 5 | 1.57 | – | 10 to 50 nM and < 5 nM | 1.26 | < 3 | < 100 | < 5 | – | 100 to 500
Nc1ncc2c3c1c(-c1ccc(C(=O)Nc4ccccn4)cc1)nn3[C@@H]1CCC[C@H](C1)C(=O)NCCCCC/C=C\C2 [Example 88b] | < 5 | < 5 | < 100 | < 5 | 1.37 | < 5 | 1.44 | – | 10 to 50 nM and < 5 nM | – | < 3 | < 100 | < 5 | – | 500 to 10000
C[C@@H]1CCn2nc(-c3ccc(C(=O)Nc4cc(C(F)(F)F)ccn4)cc3)c3c(N)ncc(c32)/C=C/CO[C@H](C)C(=O)N1 [Example 57] | < 5 | < 5 | < 100 | < 5 | 2.14 | < 5 | 7.92 | 2.06 | < 2 nM | 1.96 | < 3 | < 100 | < 5 | – | 500 to 10000
Nc1ncc2c3c1c(-c1ccc(C(=O)Nc4cc(C(F)(F)F)ccn4)cc1)nn3[C@@H]1CCCN(C1)C(=O)CCCCCC(O)/C=C/2 (some centres unmarked) [Example 83] | < 5 | < 5 | < 100 | < 5 | 2.95 | < 5 | 4.44 | 1.36 | < 2 nM | 3.04 | < 3 | < 100 | < 5 | – | 500 to 10000
COc1ccc(F)cc1C(=O)NCc1ccc(-c2nn3c4c(cnc(N)c24)/C=C/CCCC(=O)N[C@@H]2CCC[C@@H]3C2)cc1 [Example 50] | < 5 | < 5 | 100 to 1000 | < 5 | – | < 5 | – | – | 10 to 50 nM and < 5 nM | – | < 3 | < 100 | < 5 | – | 500 to 10000
CN1C/C=C/c2cnc(N)c3c(-c4ccc(C(=O)Nc5cc(C(F)(F)F)ccn5)cc4)nn(c23)[C@@H]2CCC[C@H](C2)NC(=O)CCC1 [Example 10] | < 5 | < 5 | < 100 | < 5 | 6.77 | < 5 | 6.76 | 1.76 | < 2 nM | 9.46 | < 3 | < 100 | < 5 | – | 500 to 10000

Continued, in another order:

IC50 [1] [nM] | IC50 [2] [nM] | IC50 [3] [nM] | Kd (wt-BTK) [nM] | Tau (h) wt-BTK (Act) (wt-BTK) [h] | Kd (BTK C481S) [nM] | Tau (h) BTK C418S (Act) (BTK C481S) [h] | Tau (h) BTK T316A (Act) (BTK T316A) [h] | Kd (BTK T474I) | residence time (BTK T474S) [h] | Kd (BTK T474S) [nM] | IC50 [4] [nM] | Kd (BTK T316A) [nM] | Tau (h) BTK T474I (Act) (BTK T474I) [h] | SMILES | IC50 (REC-1 T474I cell lines) [nM]
< 5 | < 5 | < 100 | < 5 | 4.08 | < 5 | 7.12 | 2.50 | 10 to 50 nM and < 5 nM | 4.36 | < 3 | < 100 | – | – | Nc1ncc2c3c1c(-c1ccc(C(=O)Nc4cc(C(F)(F)F)ccn4)cc1)nn3[C@@H]1CCC[C@H](C1)C(=O)NCCCC/C=C\C2 [Example 85b] | 100 to 500
< 5 | < 5 | < 100 | < 5 | 4.48 | < 5 | 2.39 | 3.79 | < 2 nM | 3.79 | < 3 | < 100 | < 5 | – | C[C@@H]1CCn2nc(-c3ccc(C(=O)Nc4cc(C(F)(F)F)ccn4)cc3)c3c(N)ncc(c32)/C=C/CCN2CC[C@H]2C(=O)N1 [Example 68] | 500 to 10000
< 5 | < 5 | < 100 | < 5 | 5.05 | < 5 | 2.04 | 3.37 | < 2 nM | 4.09 | < 3 | < 100 | < 5 | 2.55 | Nc1ncc2c3c1c(-c1ccc(C(=O)Nc4cc(C(F)(F)F)ccn4)cc1)nn3[C@@H]1CCC[C@H](C1)NC(=O)CCCOC/C=C/2 [Example 27] | < 100
< 5 | < 5 | 100 to 1000 | < 5 | 2.66 | < 5 | 4.68 | 1.91 | < 2 nM | 2.76 | < 3 | < 100 | < 5 | 0.86 | Nc1ncc2c3c1c(-c1ccc(C(=O)Nc4cc(C(F)(F)F)ccn4)cc1)nn3[C@@H]1CCC[C@H](C1)NC(=O)CCC/C=C/2 [Example 47] | 100 to 500
